From patent publication US20250041302A1, “PROLYL HYDROXYLASE DOMAIN INHIBITOR FOR TREATING HEMORRHAGIC OR BURN SHOCK” (THE GOVERNMENT OF THE UNITED STATES, AS REPRESENTED BY THE …, priority 2022, published 2025)
“Also recorded” adds a separate entry of the source.

Legend:
[1] = tested on: rats with lethal hemorrhagic shock; experiment: Intravenous PHDi in lethal hemorrhagic shock, fixed-volume hemorrhage 65% EBV, FWB at 60 min (FIG. 7-10); type: in vivo, Sprague-Dawley rats
Protocol: For the experiments in this disclosure, fixed-volume hemorrhage (65% estimated blood volume (EBV)) was performed in isoflurane anesthetized Sprague-Dawley rats. In this model, the initial 40% of total volume of hemorrhage was performed by continuous blood draw using syringe pump within first 2 min, followed by manually repeatedly drawing 1.5 ml of whole blood every 2 min at 10 min, and 1 ml of whole blood every 3 min thereafter until achieving the targeted volume of hemorrhage, and thus 40% bleeding occurs within the first 2 minutes (fast hemorrhage), another 40% between 2-10 minutes, and the rest 20% between 10-22 minutes (slow hemorrhage).
Then, the animals were treated with 500 u L PHDi (MK-8617 at 1 mg/ml, in a dissolvent composed of 5% DMSO, 10% PEG 400, and 85% normal saline, average dose at 1.24±0.07 mg/kg) or vehicle (n=13 each) intravenously at 20 min after hemorrhage. At 60 min after hemorrhage, surviving animals were resuscitated with fresh whole blood (FWB, 20% EBV) using shed blood collected at 2 min after hemorrhage. The 60 min- or 4 hour survivability was analyzed
For the measurement of metabolites (lactate and HCO3) and ATP, blood samples were harvested at time point 0 (baseline), 20 minutes (prior to PHDi), 60 minutes (prior to fresh whole blood (FWB)), and 240 minutes after polytrauma/hemorrhage.

[2] = tested on: polytrauma/hemorrhage rodent model; experiment: Intravenous PHDi at 20 min after polytrauma/hemorrhage (FIG. 6); type: in vivo, rat
Protocol: FIG. 6. The effect of intravenous administration of PHDi after polytrauma/hemorrhage. PHDi (MK-8617, 1 mg/kg, n=8) or vehicle (n=7) was administered intravenously at 20 min after trauma. (FIG. 6A) Mean arterial pressure (MAP); (FIG. 6B) Lactate (hyperlactatemia); (FIG. 6C) Prothrombin time (PT, acute traumatic coagulopathy); and (FIG. 6D) Fibrinogen level.
PHDi (MK-8617, 1 mg/ml in 500 μL of 5% DMSO, 10% PEG 400, and 85% normal saline, average dose 1.26±0.05 mg/kg, n=8), or vehicle (n=7) was administered intravenously at 20 min after trauma. The surviving animals were euthanized 4 hours after trauma.

[3] = tested on: rats with polytrauma and hemorrhagic shock; experiment: Oral PHDi prior to polytrauma/hemorrhage, pilot study (FIG. 3); type: in vivo, Sprague-Dawley rats
Protocol: FIG. 3. The effect of PHDi prior to polytrauma/hemorrhage on lactate level. PHDi (MK-8617, 1 mg/kg) or vehicle was orally applied in rats prior to trauma (n=3-4/group). The lactate in whole blood samples were collected at baseline (BSL), shed hemorrhage blood (HEM), 2- and 4 hours after trauma and measured by iSTAT. […] Values represent as means±SEM.
PHDi (MK-8617, 500 microgram per rat) was orally applied prior to trauma, and the lactate (measured by iSTAT) was measured at baseline, 2 and 4 hours after trauma.
Model-1, acute sub-lethal hemorrhagic shock with polytrauma (40% hemorrhage, fast speed hemorrhage at >1 ml/min, target MAP at 35-40 mmHg for 30 min): This model has intensive tissue damage and transient compensated hemorrhagic shock, and the animals survived for 4 hours after trauma without resuscitation or any intervention. The death occurs after 4 hours after trauma.
Briefly, Sprague-Dawley rats (350-450 gram) were anesthetized with isoflurane/100% oxygen through a nosecone and allowed to breathe spontaneously. Cannulas were placed in the left femoral artery and vein for measurement of arterial blood pressure and to obtain vascular access (blood draw and resuscitation and drug administration) respectively. Polytrauma was induced by laparotomy, crush injury to the small intestines, the left and medial liver lobes, and the right leg skeletal muscle and by fracture of the right femur. In detail, a midline incision was made through the abdominal skin and underlying muscle layers. A 10-cm section of small intestines was isolated just anterior to the cecum and run gently through a clamp covered with silastic tubing with a 2-mm distance between the clamps to cause a gentle crush injury. The right and medial lobes of the liver will receive three crushes to each lobe using the same clamp. The intestines and liver were replaced, and the abdominal incision was closed with sutures in two layers. To fracture the […], a modification of a 3-point impact device was used by dropping six stainless-steel balls (65 g each) stacked together, from 36 inches through a guide tube (1 inch internal diameter) to impact on a rounded aluminum blade resting on the mid-right femur with the right leg resting on two aluminum stands, one under the hip and one under the knee. A large hemostat (5 in tongs) was used to clamp the muscle of the right leg 10 times. The crush injury was intended to cause microvascular damage, as opposed to cutting, chopping, or mincing of the tissue, which would have led to uncontrolled hemorrhage. The polytrauma was performed about 10 min followed immediately by hemorrhage. […]
The lactate in whole blood samples were collected at baseline (BSL), shed hemorrhage blood (HEM), 2- and 4 hours after trauma, and the lactate was measured by iSTAT. […]

SMILES: COc1ccc(C(NC(=O)c2cnc(-c3cccnn3)nc2O)c2ccc(OC)cc2)cc1 [MK-8617, N-[Bis(4-methoxyphenyl)methyl]-4-hydroxy-2-(pyridazin-3-yl)pyrimidine-5-carboxamide]
- MAP ([1]; 10 min after treatment, i.v. 1.24±0.07 mg/kg at 20 min after hemorrhage, vehicle 31.3±1.1, p=0.02): 35.9±1.2 mmHg
- MAP after whole blood resuscitation (FWB) ([1]; PHDi treated animals, FWB at 60 min): partial restoration of MAP
- time to death ([1]; acute administration): extends the time to death
- reduction in the elevation of lactate as compared with vehicle ([1]; at 60 min): about 30%
- lactate after whole blood resuscitation ([1]; at 4 hr after transfusion): reduced lactate
- 60 min survivability ([1]; n=13, vehicle 15%, p=0.03): 62%
- prothrombin time (PT) ([1]; surviving animals at 60 min and 4 hours followed by whole blood resuscitation): significantly elevated
- animals surviving for 4 hours after hemorrhage among those that received whole blood resuscitation ([1]; vehicle 1 of 2, p=0.036): 6 of 8
- mean arterial pressure (MAP) compared with vehicle ([2]; after treatment, MK-8617 i.v. 1.26±0.05 mg/kg at 20 min after trauma, n=8): significantly higher
- reduction in the elevation of lactate as compared with vehicle ([2]; at 60 min, i.v. at 20 min after trauma): about 30%
- prothrombin time (PT, acute traumatic coagulopathy) ([2]; i.v. at 20 min after trauma): reduced the prolongation of prothrombin time
- average levels of lactate attenuated as compared with vehicle ([3]; 2 and 4 hr after trauma, oral prior to trauma): about 30%
- survival ([3]; 4 hours after trauma): all animals survived after 4 hours
- lactate in whole blood (iSTAT) ([3]; 4 hours after trauma, MK-8617 1 mg/kg orally prior to trauma, n=4): 2.365 ± 0.733 mmol/L
- rise of lactate ([3]; oral MK-8617 1 mg/kg prior to trauma, 1 mg/kg): attenuated the rise of lactate; also recorded: mitigating the elevation of lactate; also recorded: attenuates lactate levels
